Data published in ChEMBL document CHEMBL5579865, “Discovery of Broad-Spectrum Herpes Antiviral Oxazolidinone Amide Derivatives and Their Structure-Activity Relationships” (ACS Med Chem Lett, 2024).
Values after ≈ are worked out from the molar mass of the structure shown. Active and inactive are the calls of the source. The calls are words filed in the database; no cut-off is given here.

Key:
[1] = Inhibition of HCMV DNA polymerase extracted from baculovirus infected Sf21 cells using Heterodimeric nucleic acid as substrate preincubated with enzyme for 30 mins followed by substrate and dATP addition measured after 60 mins by biotinylated UTP incorporation based AlphaLISA assay; set-up: species or system Human betaherpesvirus 5
[2] = Inhibition of VZV DNA polymerase extracted from baculovirus infected Sf21 cells using Heterodimeric nucleic acid as substrate preincubated with enzyme for 30 mins followed by substrate and dATP addition measured after 60 mins by biotinylated UTP incorporation based AlphaLISA assay; set-up: species or system Human alphaherpesvirus 3
Human betaherpesvirus 5 [3] = assay: Antiviral activity against HCMV AD169 infected in human MRC5 cells assessed as reduction in viral replication incubated for 72 hrs in presence of 50 % serum by qRT-PCR analysis; assay type: functional, organism-based
Human alphaherpesvirus 3 [4] = assay: Antiviral activity against VZV Street infected in human MeWo cells assessed as reduction in viral replication incubated for 72 hrs by qRT-PCR analysis; assay type: functional, organism-based; conditions: Human alphaherpesvirus 3, Street, MeWo, 72 h; read-out: EC50
Human alphaherpesvirus 1 [5] = assay: Antiviral activity against HSV-1 F strain infected in African green monkey Vero cells assessed as reduction in viral replication incubated for 72 hrs by qRT-PCR analysis; assay type: functional, organism-based
Human alphaherpesvirus 2 = assay: Antiviral activity against HSV-2 G strain infected in African green monkey Vero cells assessed as reduction in viral replication incubated for 72 hrs by qRT-PCR analysis; assay type: functional, organism-based
[6] = Unbound clearance in Wistar rat at 1 mg/kg,iv administration; assay type: ADME, organism-based; conditions: in vivo
[7] = Unbound volume of distribution in Wistar rat at 1 mg/kg,iv or 10 mg/kg,po administration; assay type: ADME, organism-based; conditions: in vivo
[8] = MRT in Wistar rat at 1 mg/kg,iv or 10 mg/kg,po administration; assay type: ADME, organism-based; conditions: in vivo
[9] = Oral bioavailability in Wistar rat at 10 mg/kg administration; assay type: ADME, organism-based; conditions: in vivo
[10] = Unbound AUC in Wistar rat at 1 mg/kg,iv or 10 mg/kg,po administration; assay type: ADME, organism-based; conditions: in vivo
[11] = Unbound fraction in Wistar rat plasma at 1 mg/kg,iv or 10 mg/kg,po administration; assay type: ADME, organism-based
[12] = biological target: Voltage-gated inwardly rectifying potassium channel KCNH2 (Homo sapiens, UniProt Q12809); assay: Inhibition of hERG by patch-clamp assay; assay type: toxicity
Chain of Voltage-gated inwardly rectifying potassium channel KCNH2 (Q12809 whole entry): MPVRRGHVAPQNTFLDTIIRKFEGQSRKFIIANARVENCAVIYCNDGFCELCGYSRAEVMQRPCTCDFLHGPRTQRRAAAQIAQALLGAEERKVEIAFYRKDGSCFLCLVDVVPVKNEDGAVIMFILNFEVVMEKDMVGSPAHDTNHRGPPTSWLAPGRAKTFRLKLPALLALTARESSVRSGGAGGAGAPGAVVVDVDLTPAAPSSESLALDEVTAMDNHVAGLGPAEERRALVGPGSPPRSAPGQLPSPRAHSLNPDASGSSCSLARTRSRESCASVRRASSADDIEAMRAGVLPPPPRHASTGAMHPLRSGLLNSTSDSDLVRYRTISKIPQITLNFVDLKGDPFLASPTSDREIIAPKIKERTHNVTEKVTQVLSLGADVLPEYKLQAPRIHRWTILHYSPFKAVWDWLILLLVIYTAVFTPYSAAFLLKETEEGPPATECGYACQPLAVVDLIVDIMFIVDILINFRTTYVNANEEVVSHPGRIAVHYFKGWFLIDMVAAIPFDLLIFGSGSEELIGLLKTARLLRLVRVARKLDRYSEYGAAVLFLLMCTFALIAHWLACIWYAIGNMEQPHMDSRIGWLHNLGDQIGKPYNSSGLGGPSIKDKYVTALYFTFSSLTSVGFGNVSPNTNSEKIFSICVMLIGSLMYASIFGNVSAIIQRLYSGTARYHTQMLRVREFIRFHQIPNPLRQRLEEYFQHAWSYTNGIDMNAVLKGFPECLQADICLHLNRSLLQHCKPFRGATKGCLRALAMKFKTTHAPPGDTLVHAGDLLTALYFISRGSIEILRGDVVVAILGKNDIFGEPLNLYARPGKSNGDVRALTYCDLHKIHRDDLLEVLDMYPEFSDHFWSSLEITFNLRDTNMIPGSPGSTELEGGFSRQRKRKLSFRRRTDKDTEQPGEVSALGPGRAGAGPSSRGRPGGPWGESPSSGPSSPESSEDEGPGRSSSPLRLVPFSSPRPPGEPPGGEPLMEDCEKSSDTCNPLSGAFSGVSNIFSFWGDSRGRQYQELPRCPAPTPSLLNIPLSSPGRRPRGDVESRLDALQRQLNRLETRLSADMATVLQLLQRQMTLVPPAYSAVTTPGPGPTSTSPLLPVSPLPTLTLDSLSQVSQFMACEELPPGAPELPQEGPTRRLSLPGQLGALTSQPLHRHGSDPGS

[13] = Inhibition of Inward-rectifier potassium channel (unknown origin); set-up: species or system Homo sapiens
[14] = biological target: Voltage-dependent L-type calcium channel subunit alpha-1C (Homo sapiens, UniProt Q13936); assay: Inhibition of Cav1.2 (unknown origin)
[15] = biological target: Sodium channel protein type 5 subunit alpha (Homo sapiens, UniProt Q14524); assay: Inhibition of Nav1.5 (unknown origin)
Chain of Sodium channel protein type 5 subunit alpha (Q14524 whole entry): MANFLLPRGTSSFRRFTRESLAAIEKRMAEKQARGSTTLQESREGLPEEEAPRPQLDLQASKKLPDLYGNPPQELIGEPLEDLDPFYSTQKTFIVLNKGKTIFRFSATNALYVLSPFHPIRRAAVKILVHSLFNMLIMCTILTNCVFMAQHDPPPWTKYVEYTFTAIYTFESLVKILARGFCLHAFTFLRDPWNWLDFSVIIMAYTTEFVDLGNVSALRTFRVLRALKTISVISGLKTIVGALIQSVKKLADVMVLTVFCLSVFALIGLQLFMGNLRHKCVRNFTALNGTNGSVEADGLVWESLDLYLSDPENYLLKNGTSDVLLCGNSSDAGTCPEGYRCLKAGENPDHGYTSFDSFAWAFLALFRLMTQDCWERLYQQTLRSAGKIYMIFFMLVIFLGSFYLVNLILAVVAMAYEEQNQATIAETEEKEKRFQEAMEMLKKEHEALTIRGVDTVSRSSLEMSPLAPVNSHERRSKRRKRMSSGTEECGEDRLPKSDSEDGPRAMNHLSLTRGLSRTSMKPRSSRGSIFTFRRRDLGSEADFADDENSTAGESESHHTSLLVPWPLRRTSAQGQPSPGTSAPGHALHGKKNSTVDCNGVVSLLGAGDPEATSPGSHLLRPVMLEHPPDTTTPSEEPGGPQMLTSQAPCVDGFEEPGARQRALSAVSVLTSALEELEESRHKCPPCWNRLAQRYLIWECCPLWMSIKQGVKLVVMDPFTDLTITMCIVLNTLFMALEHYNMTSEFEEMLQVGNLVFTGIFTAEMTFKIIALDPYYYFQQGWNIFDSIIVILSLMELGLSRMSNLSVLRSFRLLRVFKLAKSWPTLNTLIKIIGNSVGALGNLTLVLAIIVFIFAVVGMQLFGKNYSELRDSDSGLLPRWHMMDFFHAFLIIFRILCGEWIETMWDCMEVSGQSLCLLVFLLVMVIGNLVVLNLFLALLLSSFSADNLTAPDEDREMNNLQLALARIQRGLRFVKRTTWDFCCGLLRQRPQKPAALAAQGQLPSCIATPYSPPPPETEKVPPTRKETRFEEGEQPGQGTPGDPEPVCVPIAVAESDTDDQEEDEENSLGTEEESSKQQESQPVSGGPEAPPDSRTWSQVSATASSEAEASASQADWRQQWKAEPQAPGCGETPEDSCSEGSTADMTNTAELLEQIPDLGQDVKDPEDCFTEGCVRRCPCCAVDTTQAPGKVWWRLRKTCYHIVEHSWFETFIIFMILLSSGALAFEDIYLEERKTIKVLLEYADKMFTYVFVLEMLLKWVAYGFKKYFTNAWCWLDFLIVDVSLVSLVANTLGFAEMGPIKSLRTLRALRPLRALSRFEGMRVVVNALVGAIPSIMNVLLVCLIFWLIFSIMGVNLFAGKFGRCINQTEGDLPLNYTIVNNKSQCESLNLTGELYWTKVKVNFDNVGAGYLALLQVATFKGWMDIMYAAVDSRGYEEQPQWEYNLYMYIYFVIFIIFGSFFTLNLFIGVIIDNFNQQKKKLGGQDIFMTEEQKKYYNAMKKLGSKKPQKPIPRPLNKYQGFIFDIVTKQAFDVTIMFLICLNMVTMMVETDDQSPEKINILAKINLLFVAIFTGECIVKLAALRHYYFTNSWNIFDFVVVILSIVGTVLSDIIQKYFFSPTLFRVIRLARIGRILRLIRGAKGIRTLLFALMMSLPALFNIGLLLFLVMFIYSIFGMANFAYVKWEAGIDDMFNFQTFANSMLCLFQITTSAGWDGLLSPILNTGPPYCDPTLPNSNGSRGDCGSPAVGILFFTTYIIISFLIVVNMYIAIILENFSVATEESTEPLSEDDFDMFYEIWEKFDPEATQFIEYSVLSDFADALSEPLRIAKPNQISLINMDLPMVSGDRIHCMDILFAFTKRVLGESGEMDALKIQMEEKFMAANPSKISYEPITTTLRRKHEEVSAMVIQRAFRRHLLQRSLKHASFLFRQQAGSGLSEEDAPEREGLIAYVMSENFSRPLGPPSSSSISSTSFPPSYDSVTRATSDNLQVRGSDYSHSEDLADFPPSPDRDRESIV

Human alphaherpesvirus 1 [16] = assay: Antiviral activity against HSV-1 F strain intranasally infected in BALB/c mouse assessed as increase in mouse survival at po bid administration for 7 days; assay type: functional, organism-based; conditions: time 7.0 day
Human alphaherpesvirus 1 [17] = assay: Antiviral activity against HSV-1 F strain intranasally infected in BALB/c mouse assessed as increase in mouse survival rate at 150 mg/kg,po bid administration for 7 days relative to control; assay type: functional; conditions: Human alphaherpesvirus 1, F strain, 168 h, time 7 day
Human alphaherpesvirus 1 [18] = assay: Antiviral activity against HSV-1 F strain intranasally infected in BALB/c mouse assessed as reduction in viral burden in lung at 30 to 150 mg/kg,po bid administration measured after 4 days; assay type: functional, organism-based; conditions: dose 30-150 mg/kg, time 4.0 day
Human alphaherpesvirus 1 [19] = assay: Antiviral activity against HSV-1 F strain intranasally infected in BALB/c mouse assessed as reduction in viral burden in brain at 30 to 150 mg/kg,po bid administration measured after 4 days by plaque assay; assay type: functional, organism-based; conditions: dose 30-150 mg/kg, time 4.0 day
Human alphaherpesvirus 1 [20] = assay: Antiviral activity against HSV-1 F strain intranasally infected in BALB/c mouse assessed as increase in mouse survival rate at 150 mg/kg,po bid administrated 2 days before viral infection measured after 2 days; assay type: functional, organism-based; conditions: time 2.0 day
Human alphaherpesvirus 1 [21] = assay: Antiviral activity against HSV-1 F strain intranasally infected in BALB/c mouse assessed as increase in mouse survival rate at 30 mg/kg,po bid administrated 2 days before viral infection measured after 2 days; assay type: functional, organism-based; conditions: time 2.0 day
Cytomegalovirus [22] = assay: Antiviral activity against Cytomegalovirus Smith intraperitoneally infected in BALB/c mouse assessed as reduction in viral burden in spleen at 30 mg/kg,po bid administration measured after 4 days by plaque assay; assay type: functional, organism-based; conditions: route ip, time 4.0 day
Cytomegalovirus [23] = assay: Antiviral activity against Cytomegalovirus Smith intraperitoneally infected in BALB/c mouse assessed as reduction in viral burden in spleen at 150 mg/kg,po bid administration measured after 4 days by plaque assay; assay type: functional, organism-based; conditions: route ip, time 4.0 day
Cytomegalovirus [24] = assay: Antiviral activity against Cytomegalovirus Smith intraperitoneally infected in BALB/c mouse assessed as reduction in viral burden in salivary gland at 30 mg/kg,po bid administration measured after 10 days by plaque assay; assay type: functional, organism-based; conditions: route ip, time 10.0 day
Cytomegalovirus [25] = assay: Antiviral activity against Cytomegalovirus Smith intraperitoneally infected in BALB/c mouse assessed as reduction in viral burden in salivary gland at 150 mg/kg,po bid administration measured after 10 days by plaque assay; assay type: functional, organism-based; conditions: route ip, time 10.0 day
[26] = Solubility in PBS at pH 7; assay type: physicochemical
[27] = Metabolic stability in human liver microsomes assessed as intrinsic clearance; assay type: ADME, Microsome; conditions: read-out: CLH
Human alphaherpesvirus 1 [28] = assay: Antiviral activity against HSV-1 F strain intranasally infected in BALB/c mouse assessed as increase in mouse survival rate at 120 mg/kg,po bid administrated 2 days before viral infection measured after 2 days; assay type: functional, organism-based; conditions: time 2.0 day
Human betaherpesvirus 5 [29] = assay: Antiviral activity against HCMV AD169 infected in human MRC5 cells assessed as reduction in viral replication incubated for 72 hrs in presence of 10 % serum by qRT-PCR analysis; assay type: functional, organism-based; conditions: Human betaherpesvirus 5, AD169, MRC5, 72 h
Human alphaherpesvirus 3 [30] = assay: Antiviral activity against VZV Street infected in human MRC5 cells assessed as reduction in viral replication incubated for 72 hrs by qRT-PCR analysis; assay type: functional, organism-based; conditions: Human alphaherpesvirus 3, Street, MRC5, 72 h
[31] = Unbound clearance in Wistar rat at 3 mg/kg,iv administration; assay type: ADME, organism-based; conditions: in vivo
[32] = Unbound volume of distribution in Wistar rat at 3 mg/kg,iv or 10 mg/kg,po administration; assay type: ADME, organism-based; conditions: in vivo
[33] = MRT in Wistar rat at 3 mg/kg,iv or 10 mg/kg,po administration; assay type: ADME, organism-based; conditions: in vivo
[34] = Unbound AUC in Wistar rat at 3 mg/kg,iv or 10 mg/kg,po administration; assay type: ADME, organism-based; conditions: in vivo
[35] = Unbound fraction in Wistar rat plasma at 3 mg/kg,iv or 10 mg/kg,po administration; assay type: ADME, organism-based
[36] = Human betaherpesvirus 5, AD169, MRC5, 72 h, read-out: EC50
[37] = Human alphaherpesvirus 1, F strain, Vero, 72 h, read-out: EC50
[38] = Human alphaherpesvirus 2, G strain, Vero, 72 h, read-out: EC50

Structure (SMILES)	IC50 [1] [µM]	IC50 [2] [µM]	EC50 (Human betaherpesvirus 5 [3]; [36]) [µM]	EC50 (Human alphaherpesvirus 3 [4]) [µM]	EC50 (Human alphaherpesvirus 1 [5]; [37]) [µM]	EC50 (Human alphaherpesvirus 2; [38]) [µM]	bioavailability [9] [%]	IC50 [12] [µM]	IC50 [13] [µM]	IC50 [14] [µM]	IC50 [15] [µM]	solubility [26] [µM]	CLint scaled [27] [mL/min/kg]	EC50 (Human betaherpesvirus 5 [29]) [µM]	EC50 (Human alphaherpesvirus 1 [5])	EC50 (Human alphaherpesvirus 3 [30]) [µM]	EC50 (Human alphaherpesvirus 2)	also measured
COc1cc(NC(=O)Cc2ccc(C(F)(F)F)cc2)ccc1C[C@H]1COC(=O)N1	0.022	0.013	0.641	0.126	0.115	0.114	71	27	25.1	7.6	13.2	129 (≈ 52.7 µg/mL)	20					CL free [6]: 187 mL/min/kg; Vdu [7]: 20 L/kg; MRT [8]: 1.8 h; fAUC [10]: 0.222 µM·h; fraction unbound [11]: 0.052; Activity (Human alphaherpesvirus 1 [16]): Dose-Dependent Effect; survival at 150 mg/kg (Human alphaherpesvirus 1 [17]): 100%; Activity (Human alphaherpesvirus 1 [18]): Active; Activity (Human alphaherpesvirus 1 [19]): Active; Activity (Human alphaherpesvirus 1 [20]): Active; Activity (Human alphaherpesvirus 1 [21]): Active; Activity (Cytomegalovirus [22]): inactive; Activity (Cytomegalovirus [23]): Active; Activity (Cytomegalovirus [24]): inactive; Activity (Cytomegalovirus [25]): Active
Nc1nc2c(ncn2COCCO)c(=O)[nH]1																		Activity (Human alphaherpesvirus 1 [28]): Active
COc1cc(NC(=O)Cc2ccc(Cl)cc2)ncc1C[C@H]1COC(=O)N1	15.9	6.29										< 2		51.2	Not Active	> 80.2	Not Active	
COc1nc(NC(=O)Cc2ccc(Cl)cc2)cnc1C[C@H]1COC(=O)N1	24.1	23.8												> 80.2	Not Active	> 80.2	Not Active	
COc1cc(NC(=O)Cc2ccc(S(F)(F)(F)(F)F)cc2)ccc1C[C@H]1COC(=O)N1	0.944	2.22													Not Active	52.7	Not Active	EC50 (Human betaherpesvirus 5 [3]): Not Active
COc1cc(NC(=O)Cc2ccc(Cl)cc2)ccc1C[C@H]1COC(=O)N1	0.049	0.017	0.37	0.097	0.1	0.17	27	20	24.5	12.9	10.5	161 (≈ 60.3 µg/mL)	16					CL free [31]: 605 mL/min/kg; Vdu [32]: 24 L/kg; MRT [33]: 0.7 h; fAUC [34]: 0.228 µM·h; fraction unbound [35]: 0.027
